Here are results for six compounds from patent US20230405003A1, “APPLICATION OF THYMIDINE DERIVATIVE IN PREPARATION OF DRUGS” (ONQUALITY PHARMACEUTICALS CHINA LTD., priority 2020, published 2023).

Assay [1] deals with human colon cancer cell HCT116 xenograft. The assay can be described thus: Effect of thymidine derivative gel on therapeutical effect of capecitabine, HCT116 xenograft nude mice. Particulars: oral capecitabine 1.5 mmol/kg, 0.5% or 2% T1 gel on the back once per day, 14 days. In kind it is in vivo, mouse. On the procedure: A BALB/C nude mouse (human colon cancer cell HCT116 xenograft) model was established. After the model was stable, the model mice were divided into four groups (in which the average tumor size of each of the 4 groups was kept as consistent as possible). Except the blank group (containing 5 mice), there were 10 mice in each group, which were subject to gavage and application experiments.
Capecitabine was dissolved in a mixed solution of castor oil:ethanol=1:1 (volume ratio). Prior to gavage, the mixture was diluted with PBS to the desired concentration (diluted for about 3 times with PBS solution). […]
A: Group of blank: 5 mice with tumors, no gavage and no drug application; B: blank group: 10 mice with tumors, oral gavage with capecitabine (1.5 mmol/kg), application with blank gel on the back (once per day for 14 days); C: 0.5% T1 group: 10 mice with tumors, oral gavage of capecitabine, application with 0.5% T1 gel (administration method and frequency are the same as those in group B); D: 2% T1 gel group: 10 mice with tumors, oral gavage of capecitabine, application of 2% T1 gel (administration method and frequency are the same as those in group B). […] The tumor size was measured and recorded every 2 days. After 14 days of the experiment, the mice were dissected to take out the tumor, which was weighed and recorded.

Assay [2] deals with hand-foot syndrome caused by Cytarabine in rats. The assay can be described thus: Rat model of hand-foot syndrome caused by cytarabine, gel application. The class given is in vivo. Particulars: Cytarabine 120 mg/kg twice per day, 30 days. The method, then: (§1) After SD rats were fed and adapted for one week (about 200 g), the rats were divided into groups, with 10 rats in each group. Then, the rats were subject to gavage administration. Capecitabine was dissolved in a 1:1 mixed solution of castor oil and ethanol and diluted for three times with PBS buffer. After gavage, the rats were fixed with a fixed cylinder, and a gel of thymidine derivative (or a compounded gel of thymidine derivative and uridine derivative) was applied to double hind paws (about 1 cm*3 cm) of the rats in group of administration (the types and concentrations are shown in Table 4), and a blank gel was applied to the group of blank (as a blank control). After approximately 4 hours of application, the rats were released after 4 hours, wiped with clean water to remove any residual drug at the application site, and allowed back to the cage. The thymidine derivative gel (or the compounded gel of thymidine derivative and uridine derivative) was administered with gavage every day. The gavage and application tests are repeated daily until the group of blank has developed obvious hand-foot syndrome.
(§2) The effects of thymidine derivative or a combination of thymidine derivative and uridine derivative on the chemotherapeutic drug-induced hand-foot syndrome in a rat model were tested according to the method in Examples 30-40. At the same time, paws of rats after treatment with the drug were taken and observed for their inflammation by hematoxylin-eosin staining (HE) and immunohistochemical staining (IHC).
(§3) The test thymidine derivative or the combination of thymidine derivative and uridine derivative, as well as the final concentration of the test compounds were shown in Table 8. Table 8 lists the animal experiment combination of a chemotherapeutical drug and the thymidine derivative gel (or the compound gel of thymidine derivative and uridine derivative) and the corresponding experimental results (wherein, the data in the column of control rate=the occurrence rate of hand-foot syndrome in Group of blank—the occurrence rate of hand-foot syndrome in Group of administration).

Assay [3] deals with hand-foot syndrome caused by Doxorubicin in rats. The experiment in a line: Rat model of hand-foot syndrome caused by doxorubicin, gel application. Particulars: Doxorubicin 7 mg/kg tail intravenous injection once every three days for 20 days, gel 3 wt%, 30 days. In kind it is in vivo. On the procedure: as §1, §2, §3
For assay [4], the system named is 5-FU-induced diarrhea in Balb/c mice. The experiment in a line: 5-FU-induced diarrhea mouse model (175 mg/kg single i.p.). In kind it is in vivo. Particulars: 5-FU 175 mg/kg single i.p.; for Survival Rate / Average Diarrhea Grade: 6 days; for Average Diarrhea Grade: score 0-4. On the procedure: 7-8-week-old male Balb/c mice were used to establish a 5-FU induced diarrhea model to test the effect of the thymidine derivative or the combination of thymidine derivative and uridine derivative on the relief of diarrhea.
Modeling dose of 5-Fu: 175 mg/kg; single administration, intraperitoneal injection (ip.);
Administration mode of the compound to test (thymidine derivative or combination of thymidine derivative and uridine derivative): single administration, by gavage, advance administration of the compound to test at various time points prior to intraperitoneal injection of 5-FU. The compound to test was administered 1 h prior to the administration of 5-FU, a certain amount of 5-FU was injected intraperitoneally 1 h later, and the compound to test was administered once again 7 h after the injection of 5-FU.
The mice were fed and adapted for one week, and then divided into groups, with 10 mice in each group for administration test.
The mice in the Group of blank was injected with 0.9% NaCl, and evaluated the effect by observing the change of diarrhea grade, food uptake, and weight change. The severity of diarrhea was scored in accordance with the following standards: 0: normal feces, 1: soft feces, 2: slightly wet, soft feces, 3: wet, unformed feces, with moderate coloration in perianal region, 4: watery feces with heavy coloration of hair in perianal region. The severity of diarrhea was evaluated by occurrence scores of various grades of diarrhea (Scores 0 to 4) and average score of diarrhea. […] The models were stable, and satisfied the experimental requirements.
5-FU was dissolved in a 0.9% NaCl solution, the mice in the model group and the treatment group were all i.p. injected at a dose of 175 mg/kg/d, […]. While modeling of injection administration of 5-FU, the thymidine derivative or the combination of thymidine derivative and uridine derivative was administered by gavage, and the compounds to test were dissolved in a PBS solution containing 5% DMSO+1% HPMC. Body weight was weighed daily to count the weight change (Δ % BW, the weight changes recorded in the table were the values on Day 6), and the food was weighed daily to calculate the food uptake. The mice were daily observed for their clinical status, e.g., activity, diarrhea, hair, fighting, etc. After 6 days, the experiments were completed and statistically analyzed for the results.

On to `CC(=O)OCC1OC(n2cc(C)c(=O)[nH]c2=O)CC1OC(C)=O` (stereo not shown) [T1], for which the “tumor volume with T1 gel versus blank gel” value in assay [1] is on record as “close to or slightly smaller than that of Group of blank gel”.
Turning to `COc1ccc2cc([C@H](C)C(=O)OC[C@H]3O[C@@H](n4cc(C)c(=O)[nH]c4=O)C[C@@H]3O)ccc2c1` [T25], in assay [2] (gel 3 wt%), the “Control Rate Forepaws” value is given as 42.86% and the “Control Rate Hindpaws” value turned out to be 57.14%. In assay [3], the “Control Rate Forepaws” value was 37.50% and the “Control Rate Hindpaws” value was 62.50%.
In the case of `Cc1cn([C@H]2C[C@H](O)[C@@H](COC(=O)[C@H](C)c3ccc(CC(C)C)cc3)O2)c(=O)[nH]c1=O` [T32], in assay [2] (gel 2 wt%), the “Control Rate Forepaws” value was found to be 33.33% and the “Control Rate Hindpaws” value turned out to be 33.33%.
As to `Cc1ccc(C(=O)c2ccc(CC(=O)OC[C@H]3O[C@@H](n4cc(C)c(=O)[nH]c4=O)C[C@@H]3O)n2C)cc1` [T36], in assay [4] (50 mpk gavage), the “Δ % BW (on Day 6)” value is 2.25% ± 0.54%, the “Survival Rate” value was found to be 100% and the “Average Diarrhea Grade” value is on record as 1.6.
For the compound `Cc1ccc(C(=O)c2ccc(CC(=O)O[C@H]3C[C@H](n4cc(C)c(=O)[nH]c4=O)O[C@@H]3CO)n2C)cc1` [T45], in assay [4] (15 mpk gavage), the “Δ % BW (on Day 6)” value is recorded as −0.34% ± 0.36%, the “Survival Rate” value is 100% and the “Average Diarrhea Grade” value is reported as 1.4.
As for `Cc1cn([C@H]2C[C@H](OC(=O)C(C)c3cccc(C(=O)c4ccccc4)c3)[C@@H](CO)O2)c(=O)[nH]c1=O` (stereo partly shown) [T50], in assay [4] (50 mpk gavage), the “Δ % BW (on Day 6)” value is reported as 2.08% ± 0.86%, the “Survival Rate” value amounted to 100% and the “Average Diarrhea Grade” value turned out to be 1.1.
